Experimental data reported in ChEMBL document CHEMBL1145147, “Cytotoxic neolignans: an SAR study” (Bioorg Med Chem Lett, 2005).

Tested on: HepG2
Experiment: Cytotoxicity of compound against human liver tumor cell line (Hep-G2) was determined
Format: functional, cell-based

Question: How did the IC50 turn out when `C=CCc1cccc(-c2cccc(CC=C)c2O)c1O` was run?
Answer: 42.1 µM

Question: `C=CCc1ccc(O)c(-c2cc(CC=C)ccc2O)c1` [MAGNOLOL] was tested. Which IC50 did it give?
Answer: 32 µM

Question: `Oc1ccccc1-c1ccccc1O` was tested. Which IC50 did it give?
Answer: > 200 µM

Question: With `C=CCc1ccc(O)cc1` [CHAVICOL] as the compound, how does the IC50 read?
Answer: > 200 µM

Question: `C=CCc1cc(O)c(O)c(-c2cc(CC=C)cc(O)c2O)c1` was tested. Which IC50 did it give?
Answer: 104 µM

Question: For `CCCc1ccc(O)c(-c2cc(CCC)ccc2O)c1`, which IC50 is on record?
Answer: 23.4 µM

Question: For `C=CCc1ccc(O)c(-c2ccc(O)c(CC=C)c2)c1` [HONOKIOL], which IC50 is on record?
Answer: 16.5 µM

Question: Which IC50 does the source give for `C=CCc1ccc(OC)c(-c2cc(CC=C)ccc2OC)c1` here?
Answer: > 200 µM

Question: Which IC50 does the source give for `C=CCc1cc(OC)c(O)c(-c2cc(CC=C)cc(OC)c2O)c1` here?
Answer: 117 µM

Question: `CCCc1ccc(O)c(-c2ccc(O)c(CCC)c2)c1` was tested. Which IC50 did it give?
Answer: 13.1 µM

Question: `C/C=C/c1ccc(O)c(-c2cc(/C=C/C)ccc2O)c1` was tested. Which IC50 did it give?
Answer: 38 µM

Question: Which IC50 does the source give for `C=CCc1ccc(Oc2cc(CC=C)ccc2O)cc1` [ISOMAGNOLOL] here?
Answer: 51.8 µM
